In brackets after ≈: the same amount, converted by molar mass. Like-named read-outs stand apart in the source and are kept apart here.
Key:
in vivo = conditions: mouse, iv
[1] = test system: Staphylococcus aureus 209P; assay: MIC, serial dilution on Mueller Hinton agar; type: cell-based; conditions: Staphylococcus aureus 209P; Mueller Hinton agar, 37°C, 18 hours; read-out: MIC.
[2] = test system: Staphylococcus aureus Ap01; assay: MIC, serial dilution on Mueller Hinton agar; type: cell-based
Bacillus subtilis PCI219 = assay: MIC, serial dilution on Mueller Hinton agar; type: cell-based; conditions: Bacillus subtilis PCI219; Mueller Hinton agar, 37°C, 18 hours; read-out: MIC.
[3] = test system: Corynebacterium bovis 1810; assay: MIC, serial dilution on Mueller Hinton agar; type: cell-based
Escherichia coli K-12 = assay: MIC, serial dilution on Mueller Hinton agar; type: cell-based
Escherichia coli K-12 R5 = assay: MIC, serial dilution on Mueller Hinton agar; type: cell-based; conditions: K12R5, 18 h
[4] = test system: Escherichia coli K-12 ML 1629; assay: MIC, serial dilution on Mueller Hinton agar; type: cell-based; conditions: K12ML1629, Escherichia coli K-12 ML 1629, resistance mechanism APH(3')-I, 37°C, 18 hours
[5] = test system: Escherichia coli K-12 LA 290 R55; assay: MIC, serial dilution on Mueller Hinton agar; type: cell-based; conditions: for MIC: Escherichia coli, K12LA290R55, 18 h
Escherichia coli JR225 = assay: microbe, parasite or virus in culture; type: cell-based; conditions: for MIC: Escherichia coli, JR225, 18 h
[6] = test system: Escherichia coli JR66/W677; assay: microbe, parasite or virus in culture; type: cell-based; conditions: JR66/W677, 18 h
Mycobacterium 607 = assay: MIC, serial dilution on Mueller Hinton agar; type: cell-based
[7] = test system: Klebsiella pneumoniae 22#3038; assay: MIC, serial dilution on Mueller Hinton agar; type: cell-based; conditions: Klebsiella pneumoniae 22#3038, resistance mechanism APH(3')-II, ANT(2"), 37°C, 18 hours
From the text: The antibacterial spectra so determined of the new compounds No. 1 to No. 13 (each in the form of the free base) of this invention are as shown in Table 1 below.

Proteus rettgeri GN 311 = assay: MIC, serial dilution on Mueller Hinton agar; type: cell-based; conditions: Providencia rettgeri, GN311; Proteus rettgeri GN 311; Mueller Hinton agar, 37°C, 18 hours; read-out: MIC.
Serratia marcescens = assay: MIC, serial dilution on Mueller Hinton agar; type: cell-based
Providencia sp. Pv 16 = assay: MIC, serial dilution on Mueller Hinton agar; type: cell-based
[8] = test system: Pseudomonas aeruginosa A3; assay: MIC, serial dilution on Mueller Hinton agar; type: cell-based; conditions: Pseudomonas aeruginosa A3; Mueller Hinton agar, 37°C, 18 hours; read-out: MIC.
[9] = test system: Pseudomonas aeruginosa GN 315; assay: MIC, serial dilution on Mueller Hinton agar; type: cell-based; conditions: GN315; Pseudomonas aeruginosa GN 315, resistance mechanism AAC(6'); Mueller Hinton agar, 37°C, 18 hours; read-out: MIC.
[10] = Staphylococcus aureus Ap01, resistance mechanism ANT(4'), Mueller Hinton agar, 37°C, 18 hours, read-out: MIC.
[11] = Corynebacterium bovis 1810, Mueller Hinton agar, 37°C, 18 hours, read-out: MIC.
[12] = K12, Escherichia coli K-12, Mueller Hinton agar, 37°C, 18 hours, read-out: MIC.
[13] = Mycobacterium 607, Mueller Hinton agar, 37°C, incubated for 40 hours, read-out: MIC.
[14] = Mueller Hinton agar, 37°C, 18 hours, read-out: MIC.
[15] = SP.PV16, Providencia sp. Pv 16, resistance mechanism AAC(2'), Mueller Hinton agar, 37°C, 18 hours, read-out: MIC.

Row | Compound | LD50 (in vivo) [mg/kg] | MIC [1] [µg/mL] | MIC [2, 10] [µg/mL] | MIC (Bacillus subtilis PCI219) [µg/mL] | MIC [3, 11] [µg/mL] | MIC (Escherichia coli K-12; [12]) [µg/mL] | MIC (Escherichia coli K-12 R5) [µg/mL] | MIC [4] [µg/mL] | MIC [5] [µg/mL] | MIC (Escherichia coli JR225) [µg/mL] | MIC [6] [µg/mL] | MIC (Mycobacterium 607; [13]) [µg/mL] | MIC [7] [µg/mL] | MIC (Proteus rettgeri GN 311) [µg/mL] | MIC (Serratia marcescens; [14]) [µg/mL] | MIC (Providencia sp. Pv 16; [15]) [µg/mL] | MIC [8] [µg/mL] | MIC [9] [µg/mL] | MIC (Serratia marcescens; 18 h) [µg/mL] | other results
1 | NCC[C@H](O)C(=O)N[C@@H]1C[C@H](N)[C@@H](O[C@H]2O[C@H](CN)CC[C@H]2N)[C@H](O)[C@H]1O[C@H]1O[C@H](CO)[C@@H](O)[C@H](N)[C@H]1O [habekacin, 1-N-(4-amino-2-(S)-hydroxybutyryl)-3',4'-dideoxykanamycin B, reference compound] | 90 | – | – | – | – | – | – | – | – | – | – | – | – | – | – | – | – | – | – | –
2 | NCC[C@H](O)C(=O)N[C@@H]1C[C@H](N)[C@@H](O[C@H]2O[C@H](CN)CC[C@H]2N)[C@H](F)[C@H]1O[C@H]1O[C@H](CO)[C@@H](O)[C@H](N)[C@H]1O [Compound No. 13, 1-N-(4-Amino-2-(S)-hydroxybutyryl)-5,3',4-trideoxy-5-fluorokanamycin B] | 150 | 0.39 (≈ 0.703 µM) | 0.78 (≈ 1.41 µM) | 0.39 (≈ 0.703 µM) | < 0.2 | 0.2 (≈ 0.361 µM) | 50 (≈ 90.2 µM) | 0.39 (≈ 0.703 µM) | 0.78 (≈ 1.41 µM) | 0.2 (≈ 0.361 µM) | 0.78 (≈ 1.41 µM) | 0.78 (≈ 1.41 µM) | 0.78 (≈ 1.41 µM) | < 0.2 | 1.56 (≈ 2.81 µM) | 0.78 (≈ 1.41 µM) | 0.39 (≈ 0.703 µM) | 6.25 (≈ 11.3 µM) | – | –
3 | NC[C@H]1O[C@H](O[C@H]2[C@H](O)[C@@H](O[C@H]3O[C@H](CO)[C@@H](O)[C@H](N)[C@H]3O)[C@H](N)C[C@@H]2N)[C@H](N)C[C@@H]1O [TMB, 3'-deoxykanamycin B, reference compound] | 80 | < 0.2 | 1.56 (≈ 3.34 µM) | < 0.2 | 6.25 (≈ 13.4 µM) | 0.39 (≈ 0.834 µM) | 100 (≈ 214 µM) | – | 25 (≈ 53.5 µM) | 25 (≈ 53.5 µM) | 12.5 (≈ 26.7 µM) | – | 12.5 (≈ 26.7 µM) | 0.2 (≈ 0.428 µM) | – | 6.25 (≈ 13.4 µM) | < 0.2 | 50 (≈ 107 µM) | 12.5 (≈ 26.7 µM) | –
4 | NC[C@H]1O[C@H](O[C@H]2[C@H](F)[C@@H](O[C@H]3O[C@H](CO)[C@@H](O)[C@H](N)[C@H]3O)[C@H](N)C[C@@H]2N)[C@H](N)C[C@@H]1O [Compound No. 2, 5,3'-Dideoxy-5-fluorokanamycin B] | 200 | 0.39 (≈ 0.831 µM) | 0.39 (≈ 0.831 µM) | – | 1.56 (≈ 3.32 µM) | < 0.2 | 25 (≈ 53.2 µM) | – | 3.12 (≈ 6.65 µM) | – | – | – | 3.12 (≈ 6.65 µM) | < 0.2 | 6.25 (≈ 13.3 µM) | – | < 0.2 | 50 (≈ 106 µM) | – | MIC (Providencia sp. Pv 16; Providencia, SP.PV16, 18 h): 3.12 µg/mL (≈ 6.65 µM)
5 | NCC[C@H](O)C(=O)N[C@@H]1C[C@H](N)[C@@H](O[C@H]2O[C@H](CN)[C@@H](O)C[C@H]2N)[C@H](F)[C@H]1O[C@H]1O[C@H](CO)[C@@H](O)[C@H](N)[C@H]1O [Compound No. 9, 1-N-(4-Amino-2-(S)-hydroxybutyryl)-5,3'-dideoxy-5-fluorokanamycin B] | 150 | 0.39 (≈ 0.683 µM) | 0.78 (≈ 1.37 µM) | < 0.2 | < 0.2 | < 0.2 | 3.12 (≈ 5.47 µM) | 0.78 (≈ 1.37 µM) | 0.78 (≈ 1.37 µM) | 0.39 (≈ 0.683 µM) | 0.78 (≈ 1.37 µM) | 0.78 (≈ 1.37 µM) | 1.56 (≈ 2.73 µM) | < 0.2 | – | 0.78 (≈ 1.37 µM) | 0.39 (≈ 0.683 µM) | 6.25 (≈ 11 µM) | 3.12 (≈ 5.47 µM) | –
6 | NC[C@H]1O[C@H](O[C@H]2[C@H](F)[C@@H](O[C@H]3O[C@H](CO)[C@@H](O)[C@H](N)[C@H]3O)[C@H](N)C[C@@H]2N)[C@H](N)[C@@H](O)[C@@H]1O [Compound No. 1, 5-Deoxy-5-fluorokanamycin B] | – | 0.39 (≈ 0.803 µM) | 25 (≈ 51.5 µM) | 0.39 (≈ 0.803 µM) | 0.78 (≈ 1.61 µM) | 0.78 (≈ 1.61 µM) | 100 (≈ 206 µM) | > 100 | 3.12 (≈ 6.43 µM) | 0.78 (≈ 1.61 µM) | > 100 | 1.56 (≈ 3.21 µM) | > 100 | < 0.2 | 6.25 (≈ 12.9 µM) | – | 1.56 (≈ 3.21 µM) | 100 (≈ 206 µM) | – | antibacterial activity ([5]; Escherichia coli K-12 LA290 R55, resistant strain having the enzyme for adenylating the 2"-hydroxyl group of kanamycin B): significantly active; antibacterial activity (Escherichia coli JR225; Escherichia coli JR 225, resistant strain having the enzyme for acetylating the 3-hydroxyl group of kanamycin B): significantly active; MIC (Providencia sp. Pv 16; Providencia, SP.PV16, 18 h): 3.12 µg/mL (≈ 6.43 µM); antibacterial activity (Providencia sp. Pv 16; Providensia Pv 16, resistant strain having the enzyme for acetylating the 2'-amino group of kanamycin B): significantly active
7 | NCC[C@H](O)C(=O)N[C@@H]1C[C@H](N)[C@@H](O[C@H]2O[C@H](CN)C[C@H](O)[C@H]2N)[C@H](F)[C@H]1O[C@H]1O[C@H](CO)[C@@H](O)[C@H](N)[C@H]1O [Compound No. 10, 1-N-(4-Amino-2-(S)-hydroxybutyryl)-5,4'-dideoxy-5-fluorokanamycin B] | – | 0.39 (≈ 0.683 µM) | 0.39 (≈ 0.683 µM) | 0.39 (≈ 0.683 µM) | < 0.2 | 0.2 (≈ 0.35 µM) | 12.5 (≈ 21.9 µM) | 0.78 (≈ 1.37 µM) | 1.56 (≈ 2.73 µM) | 0.78 (≈ 1.37 µM) | 1.56 (≈ 2.73 µM) | 6.25 (≈ 11 µM) | 3.12 (≈ 5.47 µM) | 0.2 (≈ 0.35 µM) | – | 0.78 (≈ 1.37 µM) | 0.39 (≈ 0.683 µM) | 6.25 (≈ 11 µM) | 3.12 (≈ 5.47 µM) | –
8 | NC[C@@H]1CC[C@@H](N)[C@@H](O[C@H]2[C@H](F)[C@@H](O[C@H]3O[C@H](CO)[C@@H](O)[C@H](N)[C@H]3O)[C@H](N)C[C@@H]2N)O1 [Compound No. 4, 5,3',4'-Trideoxy-5-fluorokanamycin B] | 140 | 0.78 (≈ 1.72 µM) | – | 0.78 (≈ 1.72 µM) | – | – | 100 (≈ 221 µM) | 3.12 (≈ 6.88 µM) | 6.25 (≈ 13.8 µM) | 3.12 (≈ 6.88 µM) | 3.12 (≈ 6.88 µM) | – | 6.25 (≈ 13.8 µM) | 0.78 (≈ 1.72 µM) | 12.5 (≈ 27.6 µM) | 12.5 (≈ 27.6 µM) | 0.39 (≈ 0.86 µM) | 100 (≈ 221 µM) | – | MIC ([2]; Staphylococcus aureus, AP01, 18 h): 3.12 µg/mL (≈ 6.88 µM); MIC ([3]; Corynebacterium bovis, 1810, 18 h): 6.25 µg/mL (≈ 13.8 µM); MIC (Escherichia coli K-12; Escherichia coli, K12, 18 h): 3.12 µg/mL (≈ 6.88 µM); MIC (Mycobacterium 607; Mycobacterium, 607, 40 h): 6.25 µg/mL (≈ 13.8 µM)
